Assay results taken from patent publication US9073855B2, “BCL-2 selective apoptosis-inducing agents for the treatment of cancer and immune diseases” (AbbVie Inc., priority 2008, dated 2015).

Assays:
FL5.12/Bcl-2 cells = experiment: FL5.12/Bcl-2 cell viability assay under IL-3 withdrawal (CellTitre Glo); format: cell-based, murine; details: Mus musculus, IL-3 withdrawn 48 hrs, then 24 hrs with compound
Method in brief: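 Viability measured by CellTitre Glo after FL5.12/Bcl-2 murine cells, starved of IL-3 for 48 hrs, were treated with compounds for another 24 hrs. Killing reflects inhibition of Bcl-2 sequestration of Bim and Puma.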

GST-Bcl-XL = GST-Bcl-XL (Homo sapiens, UniProt Q07817); experiment: TR-FRET binding assay, GST-Bcl-XL with F-Bak peptide probe; details: TR-FRET Binding Affinity, GST-Bcl-XL, F-Bak peptide probe
Method in brief: (§1)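 Displacement of a fluorescein-labelled Bak peptide from the GST-tagged protein was followed by time-resolved FRET with a terbium anti-GST donor after 3 h incubation at room temperature. Inhibition constants were calculated with Wang's equation.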

GST-Bcl-2 = GST-Bcl-2 (Homo sapiens, UniProt P10415); experiment: TR-FRET binding assay, GST-Bcl-2 with F-Bak peptide probe; details: for Ki: TR-FRET Binding Affinity, GST-Bcl-2, F-Bak peptide probe
Method in brief: as §1

Sequence of GST-Bcl-2 (P10415 whole entry): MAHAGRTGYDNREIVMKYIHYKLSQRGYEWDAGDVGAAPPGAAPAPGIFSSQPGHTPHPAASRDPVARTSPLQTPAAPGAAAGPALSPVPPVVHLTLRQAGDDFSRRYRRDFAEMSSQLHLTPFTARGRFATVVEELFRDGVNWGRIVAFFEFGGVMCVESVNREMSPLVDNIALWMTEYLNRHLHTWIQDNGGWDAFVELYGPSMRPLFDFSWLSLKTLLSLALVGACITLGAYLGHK
Sequence of GST-Bcl-XL (Q07817 whole entry): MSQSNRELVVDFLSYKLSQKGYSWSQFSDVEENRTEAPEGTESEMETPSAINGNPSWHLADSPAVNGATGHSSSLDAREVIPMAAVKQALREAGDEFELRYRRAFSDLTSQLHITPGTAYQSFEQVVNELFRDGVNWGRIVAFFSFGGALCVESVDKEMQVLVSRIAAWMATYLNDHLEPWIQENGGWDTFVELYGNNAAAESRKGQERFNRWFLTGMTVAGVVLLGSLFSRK

For CC1(C)CCC(CN2CCN(c3ccc(C(=O)NS(=O)(=O)c4ccc(N5CCOCC5)c([N+](=O)[O-])c4)c(Oc4ccc5[nH]ccc5c4)c3)CC2)=C(c2ccc(Cl)cc2)C1 [Example 270, 4-(4-{[2-(4-chlorophenyl)-4,4-dimethylcyclohex-1-en-1-yl]methyl}piperazin-1-yl)-2-(1H-indol-5-yloxy)-N-[(4-morpholin-4-yl-3-nitrophenyl)sulfonyl]benzamide], the EC50 (FL5.12/Bcl-2 cells) was 429 nM, the Ki (GST-Bcl-XL) was > 660 nM and the Ki (GST-Bcl-2) was 3.31 nM.

CC1(C)CCC(CN2CCN(c3ccc(C(=O)NS(=O)(=O)c4cnc(OCCN5CCOCC5)c(C#N)c4)c(Oc4ccc5[nH]ccc5c4)c3)CC2)=C(c2ccc(Cl)cc2)C1 [Example 388, 4-(4-{[2-(4-chlorophenyl)-4,4-dimethylcyclohex-1-en-1-yl]methyl}piperazin-1-yl)-N-{[5-cyano-6-(2-morpholin-4-ylethoxy)pyridin-3-yl]sulfonyl}-2-(1H-indol-5-yloxy)benzamide] was tested, and the EC50 (FL5.12/Bcl-2 cells) was 82.9 nM, the Ki (GST-Bcl-XL) was 34.8 nM and the Ki (GST-Bcl-2) was 0.188 nM.

With CC1(C)CCC(CN2CCN(c3ccc(C(=O)NS(=O)(=O)c4ccc(OCC5(F)CCOCC5)c([N+](=O)[O-])c4)c(Oc4cccc5[nH]ccc45)c3)CC2)=C(c2ccc(Cl)cc2)C1 [Example 306, 4-(4-{[2-(4-chlorophenyl)-4,4-dimethylcyclohex-1-en-1-yl]methyl}piperazin-1-yl)-N-({4-[(4-fluorotetrahydro-2H-pyran-4-yl)methoxy]-3-nitrophenyl}sulfonyl)-2-(1H-indol-4-yloxy)benzamide] the EC50 (FL5.12/Bcl-2 cells) was 7.16 nM, the Ki (GST-Bcl-XL) was 47.9 nM and the Ki (GST-Bcl-2) was 0.077 nM.

With CN1CCC(Nc2ccc(S(=O)(=O)NC(=O)c3ccc(N4CCN(Cc5cc(OCCO)ccc5-c5ccc(Cl)cc5)CC4)cc3Oc3cccc4[nH]ccc34)cc2[N+](=O)[O-])CC1 [Example 221, 4-(4-{[4′-chloro-4-(2-hydroxyethoxy)-1,1′-biphenyl-2-yl]methyl}piperazin-1-yl)-2-(1H-indol-4-yloxy)-N-({4-[(1-methylpiperidin-4-yl)amino]-3-nitrophenyl}sulfonyl)benzamide] the EC50 (FL5.12/Bcl-2 cells) was 149 nM, the Ki (GST-Bcl-XL) was 170 nM and the Ki (GST-Bcl-2) was 0.057 nM.

With CC1(C)CCC(CN2CCN(c3ccc(C(=O)NS(=O)(=O)c4ccc(S(C)(=O)=O)cc4)c(Oc4ccc5[nH]ccc5c4)c3)CC2)=C(c2ccc(Cl)cc2)C1 [Example 382, 4-(4-{[2-(4-chlorophenyl)-4,4-dimethylcyclohex-1-en-1-yl]methyl}piperazin-1-yl)-2-(1H-indol-5-yloxy)-N-{[4-(methylsulfonyl)phenyl]sulfonyl}benzamide] the EC50 (FL5.12/Bcl-2 cells) was > 500 nM, the Ki (GST-Bcl-XL) was > 660 nM and the Ki (GST-Bcl-2) was 1.15 nM.

In the case of C[C@@H](c1ccccc1-c1ccc(Cl)cc1)N1CCN(c2ccc(C(=O)NS(=O)(=O)c3ccc(NCC4CCOCC4)c([N+](=O)[O-])c3)c(Oc3cccc4[nH]ccc34)c2)CC1 [Example 256, 4-{4-[(1S)-1-(4′-chloro-1,1′-biphenyl-2-yl)ethyl]piperazin-1-yl}-2-(1H-indol-4-yloxy)-N-({3-nitro-4-[(tetrahydro-2H-pyran-4-ylmethyl)amino]phenyl}sulfonyl)benzamide], the EC50 (FL5.12/Bcl-2 cells) is reported as 8.89 nM, the Ki (GST-Bcl-XL) is reported as > 660 nM and the Ki (GST-Bcl-2) is reported as 0.12 nM.

In the case of CC1(C)CCC(CN2CCN(c3ccc(C(=O)NS(=O)(=O)c4ccc(NCCN5CCCCC5=O)c([N+](=O)[O-])c4)c(Oc4ccc5[nH]ccc5c4)c3)CC2)=C(c2ccc(Cl)cc2)C1 [Example 267, 4-(4-{[2-(4-chlorophenyl)-4,4-dimethylcyclohex-1-en-1-yl]methyl}piperazin-1-yl)-2-(1H-indol-5-yloxy)-N-[(3-nitro-4-{[2-(2-oxopiperidin-1-yl)ethyl]amino}phenyl)sulfonyl]benzamide], the EC50 (FL5.12/Bcl-2 cells) is reported as 56.4 nM, the Ki (GST-Bcl-XL) is reported as > 660 nM and the Ki (GST-Bcl-2) is reported as 0.454 nM.

With CN1CCC(COc2ccc(S(=O)(=O)NC(=O)c3ccc(N4CCN(CC5=C(c6ccc(Cl)cc6)CC(C)(C)CC5)CC4)cc3Oc3ccc4[nH]ccc4c3)cc2[N+](=O)[O-])CC1 [Example 354, 4-(4-{[2-(4-chlorophenyl)-4,4-dimethylcyclohex-1-en-1-yl]methyl}piperazin-1-yl)-2-(1H-indol-5-yloxy)-N-({4-[(1-methylpiperidin-4-yl)methoxy]-3-nitrophenyl}sulfonyl)benzamide] the EC50 (FL5.12/Bcl-2 cells) was 5.6 nM, the Ki (GST-Bcl-XL) was 5.41 nM and the Ki (GST-Bcl-2) was 0.036 nM.

COCCN1CCC(Nc2ccc(S(=O)(=O)NC(=O)c3ccc(N4CCN(CC5=C(c6ccc(Cl)cc6)CC(C)(C)CC5)CC4)cc3Oc3cccc4[nH]ccc34)cc2[N+](=O)[O-])CC1 [Example 194, 4-(4-{[2-(4-chlorophenyl)-4,4-dimethylcyclohex-1-en-1-yl]methyl}piperazin-1-yl)-2-(1H-indol-4-yloxy)-N-[(4-{[1-(2-methoxyethyl)piperidin-4-yl]amino}-3-nitrophenyl)sulfonyl]benzamide] was tested, and the EC50 (FL5.12/Bcl-2 cells) was 27 nM, the Ki (GST-Bcl-XL) was 32 nM and the Ki (GST-Bcl-2) was 0.151 nM.

In the case of CC(C1=C(c2ccc(Cl)cc2)CC(C)(C)CC1)N1CCN(c2ccc(C(=O)NS(=O)(=O)c3ccc(NCCCN4CCOCC4)c([N+](=O)[O-])c3)c(Oc3ccc4[nH]ccc4c3)c2)CC1 (stereo not shown) [Example 257, 4-(4-{1-[2-(4-chlorophenyl)-4,4-dimethylcyclohex-1-en-1-yl]ethyl}piperazin-1-yl)-2-(1H-indol-5-yloxy)-N-({4-[(3-morpholin-4-ylpropyl)amino]-3-nitrophenyl}sulfonyl)benzamide], the EC50 (FL5.12/Bcl-2 cells) is reported as 9.34 nM, the Ki (GST-Bcl-XL) is reported as 17.1 nM and the Ki (GST-Bcl-2) is reported as 0.171 nM.

In the case of COC1CCC(Nc2ccc(S(=O)(=O)NC(=O)c3ccc(N4CCN(CC5=C(c6ccc(Cl)cc6)CC(C)(C)CC5)CC4)cc3Oc3ccc4[nH]ccc4c3)cc2[N+](=O)[O-])CC1 (stereo not shown) [Example 265, 4-(4-{[2-(4-chlorophenyl)-4,4-dimethylcyclohex-1-en-1-yl]methyl}piperazin-1-yl)-2-(1H-indol-5-yloxy)-N-({4-[(4-methoxycyclohexyl)amino]-3-nitrophenyl}sulfonyl)benzamide], the EC50 (FL5.12/Bcl-2 cells) is reported as 244 nM, the Ki (GST-Bcl-XL) is reported as > 660 nM and the Ki (GST-Bcl-2) is reported as 1.7 nM.

COCCOCCSc1ccc(S(=O)(=O)NC(=O)c2ccc(N3CCN(CC4=C(c5ccc(Cl)cc5)CC(C)(C)CC4)CC3)cc2Oc2ccc3[nH]ccc3c2)cc1[N+](=O)[O-] [Example 380, 4-(4-{[2-(4-chlorophenyl)-4,4-dimethylcyclohex-1-en-1-yl]methyl}piperazin-1-yl)-2-(1H-indol-5-yloxy)-N-[(4-{[2-(2-methoxyethoxy)ethyl]thio}-3-nitrophenyl)sulfonyl]benzamide] showed an EC50 (FL5.12/Bcl-2 cells) of 68.5 nM, a Ki (GST-Bcl-XL) of 175 nM and a Ki (GST-Bcl-2) of 0.083 nM.

CC(C)[C@H](CO)Nc1ccc(S(=O)(=O)NC(=O)c2ccc(N3CCN(CC4=C(c5ccc(Cl)cc5)CC(C)(C)CC4)CC3)cc2Oc2ccc3[nH]ccc3c2)cc1[N+](=O)[O-] [Example 371, 4-(4-{[2-(4-chlorophenyl)-4,4-dimethylcyclohex-1-en-1-yl]methyl}piperazin-1-yl)-N-[(4-{[(1R)-1-(hydroxymethyl)-2-methylpropyl]amino}-3-nitrophenyl)sulfonyl]-2-(1H-indol-5-yloxy)benzamide] was tested, and the EC50 (FL5.12/Bcl-2 cells) was > 500 nM, the Ki (GST-Bcl-XL) was > 660 nM and the Ki (GST-Bcl-2) was 8.38 nM.

CC1(C)CCC(CN2CCN(c3ccc(C(=O)NS(=O)(=O)c4ccc(NC5CCN(C6CCOCC6)CC5)c([N+](=O)[O-])c4)c(Oc4ccc5[nH]ccc5c4)c3F)CC2)=C(c2ccc(Cl)cc2)C1 [Example 185, 4-(4-{[2-(4-chlorophenyl)-4,4-dimethylcyclohex-1-en-1-yl]methyl}piperazin-1-yl)-3-fluoro-2-(1H-indol-5-yloxy)-N-({3-nitro-4-[(1-tetrahydro-2H-pyran-4-ylpiperidin-4-yl)amino]phenyl}sulfonyl)benzamide] was tested, and the EC50 (FL5.12/Bcl-2 cells) was 63.4 nM, the Ki (GST-Bcl-XL) was 82.6 nM and the Ki (GST-Bcl-2) was 0.228 nM.

With CC1(C)CCC(CN2CCN(c3ccc(C(=O)NS(=O)(=O)c4ccc(NC5CCN(CCn6cccn6)CC5)c([N+](=O)[O-])c4)c(Oc4ccc5[nH]ccc5c4)c3)CC2)=C(c2ccc(Cl)cc2)C1 [Example 243, 4-(4-{[2-(4-chlorophenyl)-4,4-dimethylcyclohex-1-en-1-yl]methyl}piperazin-1-yl)-2-(1H-indol-5-yloxy)-N-{[3-nitro-4-({1-[2-(1H-pyrazol-1-yl)ethyl]piperidin-4-yl}amino)phenyl]sulfonyl}benzamide] the EC50 (FL5.12/Bcl-2 cells) was 28 nM, the Ki (GST-Bcl-XL) was > 660 nM and the Ki (GST-Bcl-2) was 0.28 nM.

With CN1CCC(Nc2ccc(S(=O)(=O)NC(=O)c3ccc(N4CCN(CC5=C(c6ccc(Cl)cc6)CC(C)(C)CC5)C(CO)C4)cc3Oc3ccc4[nH]ccc4c3)cc2[N+](=O)[O-])CC1 (stereo not shown) [Example 218, 4-[4-{[2-(4-chlorophenyl)-4,4-dimethylcyclohex-1-en-1-yl]methyl}-3-(hydroxymethyl)piperazin-1-yl]-2-(1H-indol-5-yloxy)-N-({4-[(1-methylpiperidin-4-yl)amino]-3-nitrophenyl}sulfonyl)benzamide] the EC50 (FL5.12/Bcl-2 cells) was 33 nM, the Ki (GST-Bcl-XL) was 96.9 nM and the Ki (GST-Bcl-2) was 0.131 nM.

For CC1(C)CCC(CN2CCN(c3ccc(C(=O)NS(=O)(=O)c4ccc(NCC56CC7CC(C5)C(O)C(C7)C6)c([N+](=O)[O-])c4)c(Oc4ccc5[nH]ccc5c4)c3)CC2)=C(c2ccc(Cl)cc2)C1 (stereo not drawn) [Example 322, 4-(4-{[2-(4-chlorophenyl)-4,4-dimethylcyclohex-1-en-1-yl]methyl}piperazin-1-yl)-N-{[4-({[Cis-4-hydroxy-1-adamantyl]methyl}amino)-3-nitrophenyl]sulfonyl}-2-(1H-indol-5-yloxy)benzamide], the EC50 (FL5.12/Bcl-2 cells) was 44.5 nM, the Ki (GST-Bcl-XL) was > 660 nM and the Ki (GST-Bcl-2) was 0.184 nM. The “Binding selectivity ratio (Bcl-XL Ki/Bcl-2 Ki)” value (GST-Bcl-2; ratio of TR-FRET Ki values, Bcl-XL over Bcl-2) was >3591.4.
